Results on 12 compounds are retold here after patent EP0819688A1, “4-substituted benzofuranes” (Byk Gulden Lomberg Chemische Fabrik GmbH, priority 1996, dated 1998).

The test system of this assay is PDE IV. Nature of the assay: Inhibition of PDE IV activity (method of Bauer and Schwabe, adapted to microtiter plates). Type of assay: biochemical. As to conditions: Hemmung der PDE IV-Aktivität. An excerpt: Der Aktivitätstest wurde nach der Methode von Bauer und Schwabe durchgeführt, die auf Mikrotiterplatten adaptiert wurde (Naunyn-Schmiedeberg's Arch. Pharmacol. 1980, 311, 193-198). Hierbei erfolgt im ersten Schritt die PDE-Reaktion. In einem zweiten Schritt wird das entstandene 5'-Nukleotid durch eine 5'-Nukleotidase des Schlangengiftes von ophiophagus hannah (King Cobra) zum ungeladenen Nukleosid gespalten. Im dritten Schritt wird das Nukleosid auf Ionenaustauschsäulen vom verbliebenen geladenen Substrat getrennt. Die Säulen werden mit 2 ml 30 mM Ammoniumformiat (pH 6,0) direkt in Minivials eluiert, in die noch 2 ml Szintillatorflüssigkeit zur Zählung gegeben wird.
Die für die erfindungsgemäßen Verbindungen ermittelten Hemmwerte ergeben sich aus der folgenden Tabelle A, in der die Nummern der Verbindungen den Nummern der Beispiele entsprechen. Tabelle A
Consider `COc1ccc(/C=C/c2ccncc2)c2cc(C(C)C)oc12` [Verbindung 4, (E)-2-Isopropyl-4-[2-(pyrid-4-yl)ethenyl]-7-methoxybenzofuran], for which the “PDE4 -logIC50” value is given as 7,21.
Consider `COc1ccc(C(O)Cc2ccncc2)c2cc(C3CCCC3)oc12` (racemic) [Verbindung 1], for which the “PDE4 -logIC50” value is listed as 6,45.
The same measure for `COc1ccc(CC(C#N)c2ccncc2)c2cc(C3CCCC3)oc12` (racemic) [Verbindung 10, (±)-4-[2-Cyano-2-(pyrid-4-yl)ethyl]-2-cyclopentyl-7-methoxybenzofuran]: 6,56.
The same measure for `COc1ccc(CCc2ccncc2)c2cc(C3CCCC3)oc12` [Verbindung 5, 2-Cyclopentyl-7-methoxy-4-[2-(pyrid-4-yl)ethyl]benzofuran]: 7,97; for `COc1ccc(/C=C/c2ccncc2)c2cc(C3CCCC3)oc12` [Verbindung 3, (E)-2-Cyclopentyl-4-[2-(pyrid-4-yl)ethenyl]-7-methoxybenzofuran]: 6,77.
The figure for `COc1ccc(/C=C(\C#N)c2cccnc2)c2cc(C3CCCC3)oc12` [Verbindung 8, (Z)-4-[2-Cyano-2-(pyrid-3-yl)ethenyl]-2-cyclopentyl-7-methoxy-benzofuran] is 6,51; for `COc1ccc(CC(C#N)c2ccncc2)c2cc(C(C)C)oc12` (racemic) [Verbindung 12, (±)-4-[2-Cyano-2-(pyrid-4-yl)ethyl]-2-isopropyl-7-methoxybenzofuran] it is 7,26; for `COc1ccc(/C=C(\C#N)c2ccncc2)c2cc(C3CCCC3)oc12` [Verbindung 7, (Z)-4-[2-Cyano-2-(pyrid-4-yl)ethenyl]-2-cyclopentyl-7-methoxy-benzofuran] it is 6,29.
For `COc1ccc(C(O)Cc2ccncc2)c2cc(C(C)C)oc12` (racemic) [Verbindung 2, (±)-4-[1-Hydroxy-2-(pyrid-4-yl)ethyl]-2-isopropyl-7-methoxybenzofuran], the “PDE4 -logIC50” value was 6,86.
The figure for `COc1ccc(CC(C#N)c2cccnc2)c2cc(C3CCCC3)oc12` (racemic) [Verbindung 11, (±)-4-[2-Cyano-2-(pyrid-3-yl)ethyl]-2-cyclopentyl-7-methoxybenzofuran] is 6,99; for `COc1ccc(C=C(C#N)c2ccncc2)c2cc(C(C)C)oc12` (mixture of isomers) [Verbindung 9, (E/Z)-4-[2-Cyano-2-(pyrid-4-yl)ethenyl]-2-isopropyl-7-methoxybenzofuran] it is 6,64; for `COc1ccc(CCc2ccncc2)c2cc(C(C)C)oc12` [Verbindung 6, 2-Isopronyl-7-methoxy-4-[2-(pyrid-4-yl)ethyl]benzofuran] it is 8,22.
